Reference: patent EP1316317A1, “Hydrosoluble mixtures of cyproterone and/or an ester of it, processes to obtain them and uses thereof” (University of Liege, priority 2001, dated 2003)
“And” between values parts separate entries of the source, which are not always exact repeats. Equal values may be shown once.

Tests used:
[1] = Stability of CPA in aqueous solution, alone or as complex with βCD (HPLC); format: physicochemical
Protocol: Un complexe est formé par ajout de 2 ml de solution aqueuse de βCD 10 mM à 20 mg de CPA. Après agitation pendant 24 heures à 25°C, ces solutions sont filtrées sur filtre en PVDF de 0,45 µm (Millipore, Millex HV 0,45 µm). La formation du complexe est effectuée sur 8 échantillons différents.
Les solutions de référence de CPA sont préparées en ajoutant 2 ml de solution aqueuse à 20 mg de CPA. Après agitation pendant 24 heures à 25°C, ces solutions sont filtrées sur filtre en PVDF de 0,45 µm. 8 échantillons sont préparés.
(§1) Les échantillons sont conservés dans des conditions ambiantes (20°C) pendant 3 mois.
La concentration en CPA contenue dans les solutions de CPA seul ou sous forme de complexe est dosée par HPLC au temps 0, après 1 mois et après 3 mois.
L'appareillage et les conditions chromatographiques sont ceux tels qu'utilisés dans l'Exemple 3.

[2] = Adsorption of CPA on cellulose and PVDF filters (recovery after filtration); format: physicochemical; details: CPA 2 µg/ml (100 µg/ml diluted 50-fold), CD 10 mM
Protocol: Les complexes ont été préparés en diluant 50 fois une solution mère de CPA à 100 µg/ml dans un mélange eau/acétonitrile (ACN) 50/50, avec une solution aqueuse de cyclodextrine à 10 mM. Les différentes cyclodextrines utilisées sont la β-CD, la γCD, l'HPβCD, l'HPγCD et la RMβCD. Ces échantillons sont agités au vortex pendant au moins 1 minute. Etant donné la faible proportion de CPA par rapport à la concentration en cyclodextrine et le CPA étant déjà solubilisé dans le milieu, il n'est pas nécessaire d'agiter 24 heures à 25°C pour obtenir le complexe, ce dernier étant formé très rapidement.
Une solution de référence contenant seulement du CPA est préparée en diluant 50 fois la solution mère de CPA à 100 µg/ml dans un mélange eau/acétonitrile 50/50, avec de l'eau purifiée.
Chaque essai est répété à trois reprises. Ces échantillons sont ensuite filtrés en partie sur filtre en ester de cellulose et en partie sur filtre en PVDF. Les échantillons sont dosés avant et après filtration de façon à pouvoir calculer le pourcentage de récupération après filtration.

[3] = Stability of CPA in alkaline medium (stress conditions), alone or complexed with CDs (HPLC); format: physicochemical; details: CD 100 mM
Protocol: Les complexes sont préparés en ajoutant 2 ml de solution aqueuse de CD à 20 mg de CPA. Les solutions de CD utilisées pour préparer ces complexes sont des solutions de HPβCD, de HPγCD ou de RMβCD à une concentration de 100 mM. Après agitation pendant 24 heures à 25°C, ces solutions sont filtrées sur filtre en PVDF de 0,45 µm (Millipore, Millex HV 0,45 µm).
Les solutions de référence de CPA sont préparées en ajoutant 2 ml de solution aqueuse à 20 mg de CPA. Après agitation pendant 24 heures à 25°C, ces solutions sont filtrées sur filtre en PVDF de 0,45 µm (Millipore, Millex HV 0,45 µm).
Chaque essai est répété à 3 reprises et les échantillons sont conservés dans des étuves à température contrôlée à 25°C pendant 1 mois.
La concentration en CPA contenu dans les solutions de CPA seul ou sous forme de complexe est dosée par HPLC au temps 0 et après 1 mois et le pH des solutions est mesuré après 1 mois.
(§2) Les conditions chromatographiques sont telles qu'utilisées précédemment.
Après 1 mois, la libération de substances alcalines provenant des flacons a communiqué un pH alcalin aux solutions. Ce pH a été mesuré et varie entre 8 et 9 dans les différentes solutions. Ce pH alcalin a provoqué la dégradation de l'acétate de cyprotérone, par hydrolyse de la fonction ester.

[4] = Stability of CPA in aqueous solution, alone or as complex with RMβCD (HPLC); format: physicochemical
Protocol: Les complexes sont formés par ajout de 2 ml de solution aqueuse de RMβCD à 30 mg de CPA. Des solutions de RMβCD à différentes concentrations ont été utilisées: 12,5; 25; 50; 100 et 200 mM. Après agitation pendant 24 heures à 25°C, ces solutions sont filtrées sur filtre en PVDF de 0,45 µm (Millipore, Millex HV 0,45 µm).
Les solutions de référence de CPA sont préparées en ajoutant 2 ml de solution aqueuse à 30 mg de CPA. Après agitation pendant 24 heures à 25°C, ces solutions sont filtrées sur filtre en PVDF de 0,45 µm (Millipore, Millex HV 0,45 µm).
as §1
La concentration en CPA contenu dans les solutions de CPA seul ou sous forme de complexe est dosée par HPLC au temps 0, après 1 mois et après 3 mois.
as §2

[5] = Phase-solubility diagram of CPA in aqueous cyclodextrin solutions (excess CPA, HPLC assay of filtrate); format: physicochemical; details: for Concentration en CPA (Solubilité du CPA en présence de HPβCD) / Concentration en CPA (Solubilité du CPA en présence de HPγCD) / Concentration en CPA (Solubilité du CPA en présence de RMβCD) / Concentration en CPA (Solubilité du CPA en présence de SBEβCD) / Concentration en CPA (Solubilité du CPA en présence de βCD) / Concentration en CPA (Solubilité du CPA en présence de γCD): 24 h at 25°C
Protocol: Les diagrammes de solubilité sont effectués en ajoutant un excès de CPA à des solutions de CD de concentration croissante. Après 24 heures d'agitation dans des bains thermostatisés à 25°C, ces solutions sont filtrées et la quantité de CPA solubilisée est dosée par HPLC.
Pesée de minimum 30 mg de CPA et ajout de 2 ml de solution de CD. Pour chaque concentration de CD, les essais sont répétés au moins deux fois. Des essais sont également effectués avec une solution aqueuse sans CD.
Les échantillons sont mis en agitation dans des bains thermostatisés à 25°C pendant 24 heures. Ensuite, ces échantillons sont filtrés sur filtre en polyvinyldifluoridène (PVDF) de 0,45 µm (Millipore, Millex HV 0,45 µm) et la concentration de CPA dans les filtrats est dosée par HPLC.
• Echantillonneur automatique Merck L-7200, Détecteur UV Merck L-7400, Pompe Merck L-7100 et intégrateur Merck D-2500.
• Colonne : Lichrospher RP18 (5 µm) 125 mm • Phase mobile : ACN/H2O 50/50 • Débit : 1,5 ml/min • Température : 25°C • Longueur d'onde : 282 nm • Etalon interne : propylparaben.

[6] = water; background statement, no method given; cited from earlier work
[7] = CPA concentration at time 0, 1440 min

Substance: acétate de cyprotérone [CPA]
- CPA retrouvé après 1 mois, Conc. ([1]; after 1 month at ambient conditions (20°C)): 2,2 µg/ml
- CPA retrouvé après 1 mois, Pourcentage moyen CPA ([1]; after 1 month at ambient conditions (20°C), relative to time 0, 43800 min): 84,6%
- CPA retrouvé après 3 mois, Conc. ([1]; after 3 months at ambient conditions (20°C)): 2,1 µg/ml
- CPA retrouvé après 3 mois, Pourcentage moyen CPA ([1]; after 3 months at ambient conditions (20°C), relative to time 0, 131400 min): 79,3%
- CPA au temps 0, Conc. ([1]; time 0, βCD 10 mM for the complex, n=8, 1440 min): 2,6 µg/ml
- Pourcentage de CPA récupéré après filtration sur PVDF, Moyenne ([2]; PVDF filter): 88,7%
- Pourcentage de CPA récupéré après filtration sur acétate de cellulose, Moyenne ([2]; cellulose filter): 2,9%
- Conc. t1 mois ([3]; CPA concentration after 1 month at 25°C, alkaline pH 8 to 9): 0,4 µg/ml
- Conc. t0 [3, 7]: 2,3 µg/ml
- Pourcentage CPA après 1 mois ([3]; after 1 month at 25°C, alkaline pH 8 to 9, 43800 min): 17,6%
- Conc. t1 ([4]; CPA concentration after 1 month at ambient conditions (20°C)): 2,2 µg/ml
- Conc. t0 [4, 7]: 2,7 µg/ml
- Pourcentage t1 mois ([4]; CPA remaining after 1 month at 20°C, 43800 min): 83,7%
- Pourcentage t3 mois ([4]; CPA remaining after 3 months at 20°C, 131400 min): 77,1%
- Concentration en CPA (Solubilité du CPA en présence de HPβCD) ([5]; HPβCD 25 mM): 308,0 µg/ml
- Concentration en CPA (Solubilité du CPA en présence de HPβCD) ([5]; HPβCD 50 mM): 629,9 µg/ml
- Concentration en CPA (Solubilité du CPA en présence de HPβCD) ([5]; HPβCD 100 mM): 1188,6 µg/ml
- Concentration en CPA (Solubilité du CPA en présence de HPβCD) ([5]; HPβCD 200 mM): 2648,2 µg/ml
- Concentration en CPA (Solubilité du CPA en présence de HPβCD) ([5]; HPβCD 12,5 mM): 147,1 µg/ml
- Concentration en CPA (Solubilité du CPA en présence de HPγCD) ([5]; HPγCD 25 mM): 282,5 µg/ml
- Concentration en CPA (Solubilité du CPA en présence de HPγCD) ([5]; HPγCD 50 mM): 578,9 µg/ml
- Concentration en CPA (Solubilité du CPA en présence de HPγCD) ([5]; HPγCD 100 mM): 1512,0 µg/ml
- Concentration en CPA (Solubilité du CPA en présence de HPγCD) ([5]; HPγCD 200 mM): 4291,1 µg/ml
- Concentration en CPA (Solubilité du CPA en présence de HPγCD) ([5]; HPγCD 12,5 mM): 118,7 µg/ml
- Concentration en CPA (Solubilité du CPA en présence de RMβCD) ([5]; RMβCD 25 mM): 430,9 µg/ml
- Concentration en CPA (Solubilité du CPA en présence de RMβCD) ([5]; RMβCD 50 mM): 1169,9 µg/ml
- Concentration en CPA (Solubilité du CPA en présence de RMβCD) ([5]; RMβCD 100 mM): 3222,1 µg/ml
- Concentration en CPA (Solubilité du CPA en présence de RMβCD) ([5]; RMβCD 200 mM): 9598,7 µg/ml
- Concentration en CPA (Solubilité du CPA en présence de RMβCD) ([5]; RMβCD 12,5 mM): 176,9 µg/ml
- Concentration en CPA (Solubilité du CPA en présence de SBEβCD) ([5]; SBEβCD 25 mM): 461,8 µg/ml
- Concentration en CPA (Solubilité du CPA en présence de SBEβCD) ([5]; SBEβCD 50 mM): 860,9 µg/ml
- Concentration en CPA (Solubilité du CPA en présence de SBEβCD) ([5]; SBEβCD 100 mM): 1475,2 µg/ml
- Concentration en CPA (Solubilité du CPA en présence de SBEβCD) ([5]; SBEβCD 200 mM): 2034,1 µg/ml
- Concentration en CPA (Solubilité du CPA en présence de SBEβCD) ([5]; SBEβCD 12,5 mM): 243,9 µg/ml
- solubilité du CPA sans cyclodextrine ([5]; water without cyclodextrin, 24 h agitation at 25°C, 1440 min): < 3 µg/ml and 2,6 µg/ml
- Concentration en CPA (Solubilité du CPA en présence de βCD) ([5]; βCD 5 mM): 28,8 µg/ml
- Concentration en CPA (Solubilité du CPA en présence de βCD) ([5]; βCD 10 mM): 56,7 µg/ml
- Concentration en CPA (Solubilité du CPA en présence de βCD) ([5]; βCD 15 mM): 86,5 µg/ml
- Concentration en CPA (Solubilité du CPA en présence de γCD) ([5]; γCD 25 mM): 436,6 µg/ml
- Concentration en CPA (Solubilité du CPA en présence de γCD) ([5]; γCD 50 mM): 1041,0 µg/ml
- Concentration en CPA (Solubilité du CPA en présence de γCD) ([5]; γCD 100 mM): 2368,9 µg/ml
- Concentration en CPA (Solubilité du CPA en présence de γCD) ([5]; γCD 200 mM (so in the source)): 2266,8 µg/ml
- Concentration en CPA (Solubilité du CPA en présence de γCD) ([5]; γCD 12,5 mM): 195,2 µg/ml
- solubilité de l'acétate de cyprotérone dans l'eau [6]: ~2 µg/mL
